The values below come from US20070004660A1, “Synergistic Modulation of Flt3 Kinase Using Alkylquinolines and Alkylquinazolines” (priority 2005, published 2007).

Broadly, the IC50 is the concentration that gives 50% inhibition. Higher therefore signals a need for much substance.

In assay [1] the target is T1, isolated kinase domain of the human FLT3 receptor (a.a. 571-993) (Homo sapiens, UniProt P36888).
T1 construct: human FLT3 receptor (a.a. 571-993)
T1 sequence (P36888 571-993): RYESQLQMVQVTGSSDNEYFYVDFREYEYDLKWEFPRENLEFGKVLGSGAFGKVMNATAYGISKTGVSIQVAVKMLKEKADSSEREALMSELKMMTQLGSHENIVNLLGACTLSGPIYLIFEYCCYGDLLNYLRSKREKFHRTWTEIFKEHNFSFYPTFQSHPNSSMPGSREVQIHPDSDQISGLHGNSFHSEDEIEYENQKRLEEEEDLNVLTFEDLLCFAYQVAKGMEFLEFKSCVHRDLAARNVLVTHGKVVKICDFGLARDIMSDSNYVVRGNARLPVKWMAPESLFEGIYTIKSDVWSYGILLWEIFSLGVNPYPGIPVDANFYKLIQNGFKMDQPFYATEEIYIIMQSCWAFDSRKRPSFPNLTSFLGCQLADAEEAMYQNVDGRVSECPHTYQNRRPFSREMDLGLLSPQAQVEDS
The assay can be described thus: FLT3 fluorescence polarization kinase assay. Format: biochemical. The conditions noted are these: 150 uM ATP; uncertainty ±10%.

Assay [2] has as its system MV4-11 cells. Briefly: Inhibition of MV4-11 cell proliferation (CellTiterGlo, 72 h). It counts as cell-based. The conditions noted are these: Homo sapiens; 72 h growth inhibition; uncertainty ±20%. A general note: In ATP-based viability assays light output follows the ATP content of the culture.

In the case of `CC(C)Oc1ccc(NC(=O)N2CCC(c3ncnc4ccc(OCCCN5CCCC5=O)cc34)CC2)cc1` [Example 101, 4-{6-[3-(2-Oxo-pyrrolidin-1-yl)-propoxy]-quinazolin-4-yl}-piperidine-1-carboxylic acid (4-isopropoxy-phenyl)-amide], the results for the IC50 in assay [1] and in assay [2] were 0.0008 µM and 0.034 µM, respectively.
As to `CC(C)Oc1ccc(NC(=O)N2CCC(c3ncnc4cc(NCCCN5CCN(C)CC5)ccc34)CC2)cc1` [Example 102, 4-{7-[3-(4-Methyl-piperazin-1-yl)-propylamino]-quinazolin-4-yl}-piperidine-1-carboxylic acid (4-isopropoxy-phenyl)-amide], the IC50 in assay [1] was 0.005 µM; in assay [2], 0.018 µM.
`CC(C)Oc1ccc(NC(=O)N2CCC(c3ncnc4cc(N5CCN(C)CC5)ccc34)CC2)cc1` [Example 103, 4-[7-(4-Methyl-piperazin-1-yl)-quinazolin-4-yl]-piperidine-1-carboxylic acid (4-isopropoxy-phenyl)-amide]: the results for the IC50 in assay [1] and in assay [2] were 0.001 µM and 0.025 µM, respectively.
Take `CN1CCN(CCCOc2ccc3c(C4CCN(C(=O)Nc5ccc(N6CCCC6)nc5)CC4)ncnc3c2)CC1` [Example 104, 4-{7-[3-(4-Methyl-piperazin-1-yl)-propoxy]-quinazolin-4-yl}-piperidine-1-carboxylic acid (6-pyrrolidin-1-yl-pyridin-3-yl)-amide]: the values for the IC50 in assay [1] and in assay [2] were 0.011 µM and 0.012 µM, respectively.
`CN1CCN(CCCOc2ccc3c(C4CCN(C(=O)Nc5cnc(N6CCCC6)nc5)CC4)ncnc3c2)CC1` [Example 105, 4-{7-[3-(4-Methyl-piperazin-1-yl)-propoxy]-quinazolin-4-yl}-piperidine-1-carboxylic acid (2-pyrrolidin-1-yl-pyrimidin-5-yl)-amide]: the IC50 in assay [1] amounted to 0.064 µM; in assay [2] it was 0.091 µM.
On to `CN1CCC(COc2ccc3c(C4CCN(C(=O)Nc5ccc(OC6CCC6)nc5)CC4)ncnc3c2)CC1` [Example 107, 4-[7-(1-Methyl-piperidin-4-ylmethoxy)-quinazolin-4-yl]-piperidine-1-carboxylic acid (6-cyclobutoxy-pyridin-3-yl)-amide], for which the IC50 was 0.001 µM in assay [1] and 0.023 µM in assay [2].
Consider `CN1CCC(COc2ccc3c(C4CCN(C(=O)Nc5ccc(N6CCOCC6)nc5)CC4)ncnc3c2)CC1` [Example 108, 4-[7-(1-Methyl-piperidin-4-ylmethoxy)-quinazolin-4-yl]-piperidine-1-carboxylic acid (6-morpholin-4-yl-pyridin-3-yl)-amide], for which the IC50 in assay [1] was found to be 0.004 µM; in assay [2], 0.173 µM.
The matching figures for `CN1CCC(COc2ccc3c(C4CCN(C(=O)Nc5ccc(N6CCCC6)cc5)CC4)ncnc3c2)CC1` [Example 109, 4-[7-(1-Methyl-piperidin-4-ylmethoxy)-quinazolin-4-yl]-piperidine-1-carboxylic acid (4-pyrrolidin-1-yl-phenyl)-amide]: 0.035 µM and 0.018 µM.
Consider `O=C(NCCCOc1ccc2c(C3CCN(C(=O)Nc4ccc(N5CCCC5)nc4)CC3)ncnc2c1)N1CCOCC1` [Example 112, Morpholine-4-carboxylic acid (3-{4-[1-(6-pyrrolidin-1-yl-pyridin-3-ylcarbamoyl)-piperidin-4-yl]-quinazolin-7-yloxy}-propyl)-amide], for which the results for the IC50 in assay [1] and in assay [2] were 0.005 µM and 0.098 µM, respectively.
Consider `CCN1CCN(CCCOc2ccc3c(C4CCN(C(=O)Nc5ccc(N6CCOCC6)cc5)CC4)ncnc3c2)CC1` [Example 115, 4-{7-[3-(4-Ethyl-piperazin-1-yl)-propoxy]-quinazolin-4-yl}-piperidine-1-carboxylic acid (4-morpholin-4-yl-phenyl)-amide], for which the IC50 in assay [1] is 0.016 µM; in assay [2], 0.104 µM.
The matching figures for `O=C(Nc1ccc(N2CCOCC2)cc1)N1CCC(c2ncnc3cc(OCCCN4CCN(CCO)CC4)ccc23)CC1` [Example 116, 4-(7-{3-[4-(2-Hydroxy-ethyl)-piperazin-1-yl]-propoxy}-quinazolin-4-yl)-piperidine-1-carboxylic acid (4-morpholin-4-yl-phenyl)-amide]: 0.014 µM and 0.139 µM.
Take `CC(=O)N1CCN(CCCOc2ccc3c(C4CCN(C(=O)Nc5ccc(N6CCOCC6)cc5)CC4)ncnc3c2)CC1` [Example 117, 4-{7-[3-(4-Acetyl-piperazin-1-yl)-propoxy]-quinazolin-4-yl}-piperidine-1-carboxylic acid (4-morpholin-4-yl-phenyl)-amide]: the IC50 in assay [1] stood at 0.094 µM; in assay [2], 0.171 µM.
On to `CS(=O)(=O)N1CCN(CCCOc2ccc3c(C4CCN(C(=O)Nc5ccc(N6CCOCC6)cc5)CC4)ncnc3c2)CC1` [Example 118, 4-{7-[3-(4-Methanesulfonyl-piperazin-1-yl)-propoxy]-quinazolin-4-yl}-piperidine-1-carboxylic acid (4-morpholin-4-yl-phenyl)-amide], for which the IC50 in assay [1] amounted to 0.008 µM; in assay [2], 0.09 µM.
Take `O=C(Nc1ccc(N2CCOCC2)cc1)N1CCC(c2ncnc3cc(OCCCN4CCC[C@H]4CO)ccc23)CC1` [Example 119, (S)-4-{7-[3-(2-Hydroxymethyl-pyrrolidin-1-yl)-propoxy]-quinazolin-4-yl}-piperidine-1-carboxylic acid (4-morpholin-4-yl-phenyl)-amide]: the IC50 is 0.047 µM in assay [1] and 0.053 µM in assay [2].
As for `CN(C)C(=O)N1CCN(CCCOc2ccc3c(C4CCN(C(=O)Nc5ccc(N6CCOCC6)cc5)CC4)ncnc3c2)CC1` [Example 120, 4-(3-{4-[1-(4-Morpholin-4-yl-phenylcarbamoyl)-piperidin-4-yl]-quinazolin-7-yloxy}-propyl)-piperazine-1-carboxylic acid dimethylamide], the IC50 in assay [1] came to 0.036 µM; in assay [2], 0.22 µM.
As to `CC(C)Oc1ccc(NC(=O)N2CCC(c3ncnc4cc(OCCCOS(C)(=O)=O)ccc34)CC2)cc1` [Example 121, Methanesulfonic acid 3-{4-[1-(4-isopropoxy-phenylcarbamoyl)-piperidin-4-yl]-quinazolin-7-yloxy}-propyl ester], the values for the IC50 in assay [1] and in assay [2] were 0.003 µM and 0.027 µM, respectively.
In the case of `CS(=O)(=O)OCCCOc1ccc2c(C3CCN(C(=O)Nc4ccc(N5CCOCC5)cc4)CC3)ncnc2c1` [Example 122, Methanesulfonic acid 3-{4-[1-(4-morpholin-4-yl-phenylcarbamoyl)-piperidin-4-yl]-quinazolin-7-yloxy}-propyl ester], the IC50 in assay [1] stood at 0.023 µM; in assay [2], 0.136 µM.
The matching figures for `O=C(Nc1ccc(N2CCOCC2)cc1)N1CCC(c2ncnc3cc(OCCCN4CCCC4)ccc23)CC1` [Example 124, 4-[7-(3-Pyrrolidin-1-yl-propoxy)-quinazolin-4-yl]-piperidine-1-carboxylic acid (4-morpholin-4-yl-phenyl)-amide]: 0.021 µM and 0.047 µM.
Regarding `CN1CCCN(CCCOc2ccc3c(C4CCN(C(=O)Nc5ccc(N6CCOCC6)cc5)CC4)ncnc3c2)CC1` [Example 125, 4-{7-[3-(4-Methyl-[1,4]diazepan-1-yl)-propoxy]-quinazolin-4-yl}-piperidine-1-carboxylic acid (4-morpholin-4-yl-phenyl)-amide], the IC50 in assay [1] stood at 0.006 µM; in assay [2], 0.045 µM.
